This passage reports IC50 results from patent US8207127B2, “Compounds for enzyme inhibition” (Onyx Technologies, Inc., priority 2004, dated 2012).

Test [1] has as its target 20S proteasome chymotrypsin-like activity (CT-L) (Homo sapiens, UniProt P20618+P28074). Nature of the test: 20S proteasome chymotrypsin-like (CT-L) activity inhibition. The format is biochemical. The following applies: chymotrypsin-like activity of 20S proteasome. The procedure:
The enzyme inhibitor analogs and prodrugs disclosed herein are useful in part because they inhibit the action of the 20S proteasome. […] That is, the instant compounds show selectivities for the 20S proteasome over other proteases such as cathepsins, calpains, papain, chymotrypsin, trypsin, tripeptidyl pepsidase II. The selectivities of the enzyme inhibitors for 20S proteasome are such that at concentrations below about 50 μM, the enzyme inhibitors show inhibition of the catalytic activity of the 20S proteasome, while not showing inhibition of the catalytic activity of other proteases such as cathepsins, calpains, papain, chymotrypsin, trypsin, tripeptidyl pepsidase II. In preferred embodiments, the enzyme inhibitors show inhibition of the catalytic activity of the 20S proteasome at concentrations below about 10 μM, while not showing inhibition of the catalytic activity of other proteases at these concentrations. In even more preferred embodiments, the enzyme inhibitors show inhibition of the catalytic activity of the 20S proteasome at concentrations below about 1 μM, while not showing inhibition of the catalytic activity of other proteases at these concentrations. Enzyme kinetic assays are disclosed in U.S. application Ser. No. 09/569,748, Example 2 and Stein et al., Biochem. (1996), 35, 3899-3908.
The chymotrypsin-like activity of 20S proteasome is characterized by cleavage of peptides in the immediate vicinity of large hydrophobic residues. In particular, the chymotrypsin-like activity of Ntn hydrolases can be determined by cleavage of a standard substrate. Examples of such substrates are known in the art. For example, a leucylleucylvalinyltyrosine derivative can be used. Enzyme kinetic assays are disclosed in U.S. application Ser. No. 09/569,748, Example 2 and Stein et al., Biochem. (1996), 35, 3899-3908.

Test [2] addresses T1, proteasome chymotrypsin-like activity (CT-L) (Homo sapiens, UniProt P28074).
T1 construct: endogenous in cells
T1 sequence (P28074 60-263): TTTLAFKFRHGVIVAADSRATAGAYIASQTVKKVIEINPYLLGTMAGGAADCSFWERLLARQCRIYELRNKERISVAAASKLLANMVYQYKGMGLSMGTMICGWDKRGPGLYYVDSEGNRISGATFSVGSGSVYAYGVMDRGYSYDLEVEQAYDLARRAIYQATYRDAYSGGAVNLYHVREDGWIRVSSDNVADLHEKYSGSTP
Description: Cell-based CT-L proteasome activity inhibition.

For the compound `CC(C)C[C@H](NC(=O)[C@H](CCc1ccccc1)NC(=O)CO)C(=O)N[C@@H](Cc1ccccc1)C(=O)N[C@@H](CC(C)C)C(=O)[C@@]1(C)CO1` [Compound 1], the values for the IC50 in test [1] and in test [2] were less than 50 nM and less than 100 nM, respectively.

In the case of `CC(C)C[C@H](NC(=O)[C@H](CCc1ccccc1)NC(=O)CN1CCCCC1)C(=O)N[C@@H](Cc1ccccc1)C(=O)N[C@@H](CC(C)C)C(=O)[C@@]1(C)CO1` [Compound 4], the half-maximal inhibitory concentration (IC50) in test [1] and in test [2] was less than 100 nM throughout.

Turning to `CC(C)C[C@H](NC(=O)[C@H](CCc1ccccc1)NC(=O)CCCN(C)C)C(=O)N[C@@H](Cc1ccccc1)C(=O)N[C@@H](CC(C)C)C(=O)[C@@]1(C)CO1` [Compound 7], the IC50 was less than 50 nM in test [1] and less than 150 nM in test [2].

Turning to `Cc1nn(C)c(C)c1S(=O)(=O)N[C@@H](CCc1ccccc1)C(=O)N[C@@H](CC(C)C)C(=O)N[C@@H](Cc1ccccc1)C(=O)N[C@@H](CC(C)C)C(=O)[C@@]1(C)CO1` [Compound 8], the IC50 in test [1] and in test [2] was less than 100 nM in each case.

The term IC50 denotes the concentration that inhibits the measured activity by half. A high value points to weaker potency.
